Test results taken from patent US7851474B2, “Dipiperazinyl ketones and related analogues” (Neurogen Corporation, priority 2005, dated 2010).

target: T1, chimeric human H3 receptor (Homo sapiens, UniProt Q9Y5N1, E19D); experiment: Chimeric human H3 receptor GTP binding assay (agonist-stimulated GTP-gamma35S binding, Example 7); type: biochemical; details: Table II; assay of Example 7; "*" in Ki; read-out: Ki
T1 construct: made in house; host or cells: Sf9 insect cells (baculovirus infection); P2 membrane preparation
T1 sequence (Q9Y5N1 with tags, fused parts or gaps E19D): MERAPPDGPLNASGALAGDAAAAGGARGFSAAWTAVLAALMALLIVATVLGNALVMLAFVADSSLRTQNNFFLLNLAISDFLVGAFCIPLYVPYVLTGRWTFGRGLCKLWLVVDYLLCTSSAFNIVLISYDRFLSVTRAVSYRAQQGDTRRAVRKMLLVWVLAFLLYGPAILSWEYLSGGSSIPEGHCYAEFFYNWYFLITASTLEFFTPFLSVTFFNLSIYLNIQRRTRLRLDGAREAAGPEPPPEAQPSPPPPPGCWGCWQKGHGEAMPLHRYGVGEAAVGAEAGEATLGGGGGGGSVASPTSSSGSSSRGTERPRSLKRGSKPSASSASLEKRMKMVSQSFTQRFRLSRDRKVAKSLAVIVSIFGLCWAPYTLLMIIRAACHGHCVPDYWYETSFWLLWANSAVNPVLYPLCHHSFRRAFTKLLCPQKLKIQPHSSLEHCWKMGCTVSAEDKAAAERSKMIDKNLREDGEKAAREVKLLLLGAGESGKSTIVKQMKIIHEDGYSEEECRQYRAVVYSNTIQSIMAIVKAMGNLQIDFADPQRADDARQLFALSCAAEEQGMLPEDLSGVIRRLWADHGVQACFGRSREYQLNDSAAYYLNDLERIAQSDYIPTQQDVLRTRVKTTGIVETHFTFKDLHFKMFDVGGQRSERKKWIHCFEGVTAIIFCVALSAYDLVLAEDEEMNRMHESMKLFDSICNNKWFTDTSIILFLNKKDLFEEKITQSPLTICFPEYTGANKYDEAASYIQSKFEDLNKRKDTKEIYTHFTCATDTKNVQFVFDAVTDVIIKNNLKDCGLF
Summary of the method: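 Sf9 membranes co-expressing the chimeric receptor and heterotrimeric G-protein subunits, 35 μg protein per tube, in pH 7.4 Tris buffer with 10 μM GDP. Test compounds at 10^−10 to 10^−6 M with 1 μM histamine, 60 min at room temperature. Filter-bound GTP-gamma^35S read by scintillation; IC50 from non-linear regression of dose-response curves.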

| Compound | Ki [nM] |
| --- | --- |
| CC(C)c1ccccc1-c1cnc(N2CCN(CC(=O)N3CCN(C4CCC4)CC3)CC2)cn1 [Compound 971, 2-{4-[2-(4-cyclobutylpiperazin-1-yl)-2-oxoethyl]piperazin-1-yl}-5-(2-isopropylphenyl)pyrazine] | < 1000 |
| Cc1cccc(C)c1-c1cnc(N2CCN(CC(=O)N3CCN(C4CCC4)CC3)CC2)cn1 [Compound 972, 2-{4-[2-(4-cyclobutylpiperazin-1-yl)-2-oxoethyl]piperazin-1-yl}-5-(2,6-dimethylphenyl)pyrazine] | < 1000 |
| O=C(CN1CCN(c2cnc(-c3cc(Cl)ccc3Cl)cn2)CC1)N1CCN(C2CCC2)CC1 [Compound 973, 2-{4-[2-(4-cyclobutylpiperazin-1-yl)-2-oxoethyl]piperazin-1-yl}-5-(2,5-dichlorophenyl)pyrazine] | < 1000 |
| Cc1cc(C)c(-c2cnc(N3CCN(CC(=O)N4CCN(C5CCC5)CC4)CC3)cn2)c(C)c1 [Compound 974, 2-{4-[2-(4-cyclobutylpiperazin-1-yl)-2-oxoethyl]piperazin-1-yl}-5-mesitylpyrazine] | < 1000 |
| O=C(CN1CCN(c2cnc(-c3ccc(C(F)(F)F)cc3)cn2)CC1)N1CCN(C2CCC2)CC1 [Compound 975, 2-{4-[2-(4-cyclobutylpiperazin-1-yl)-2-oxoethyl]piperazin-1-yl}-5-[4-(trifluoromethyl)phenyl] pyrazine] | < 1000 |
| O=C(CN1CCN(c2cnc(-c3cccc(C(F)(F)F)c3)cn2)CC1)N1CCN(C2CCC2)CC1 [Compound 976, 2-{4-[2-(4-cyclobutylpiperazin-1-yl)-2-oxoethyl]piperazin-1-yl}-5-[3-(trifluoromethyl)phenyl] pyrazine] | < 1000 |
| O=C(CN1CCN(c2ncc(F)cn2)CC1)N1CCN(C2CCCC2)CC1 [Compound 977, 2-{4-[2-(4-cyclopentylpiperazin-1-yl)-2-oxoethyl]piperazin-1-yl}-5-fluoropyrimidine] | < 1000 |
| O=C(CN1CCN(c2nc3ccccc3n2Cc2ccc(F)cc2)CC1)N1CCN(C2CCCC2)CC1 [Compound 978, 2-{4-[2-(4-cyclopentylpiperazin-1-yl)-2-oxoethyl]piperazin-1-yl}-1-(4-fluorobenzyl)-1H-benzimidazole] | < 1000 |
| CCC(C)N1CCN(C(=O)CN2CCN(c3ncc(F)cn3)CC2)CC1 (centres unmarked) [Compound 979, 2-{4-[2-(4-sec-butylpiperazin-1-yl)-2-oxoethyl]piperazin-1-yl}-5-fluoropyrimidine] | < 1000 |
| O=C(CN1C=CC2(CC1)c1ccccc1C(=O)N2Cc1ccccc1)N1CCN(C2CCC2)CC1 (centres unmarked) [Compound 980, 2-benzyl-1′-[2-(4-cyclobutylpiperazin-1-yl)-2-oxoethyl]-2′,′3-dihydro-1′H-spiro[isoindole-1,4′-pyridin]-3(2H)-one] | < 1000 |
| O=C(CN1CCC2(CC1)c1ccccc1C(=O)N2Cc1ccccc1)N1CCN(C2CCC2)CC1 [Compound 981, 2-benzyl-1′-[2-(4-cyclobutylpiperazin-1-yl)-2-oxoethyl]spiro[isoindole-1,4′-piperidin]-3(2H)-one] | < 1000 |
| O=C(CN1CCC2(CC1)CC(=O)N(Cc1ccccc1)C2=O)N1CCN(C2CCC2)CC1 [Compound 982, 2-benzyl-8-[2-(4-cyclobutylpiperazin-1-yl)-2-oxoethyl]-2,8-diazaspiro[4.5]decane-1,3-dione] | < 1000 |
| O=C(CN1CCN(c2cnc(Br)cn2)CC1)N1CCN(C2CCC2)CC1 [Compound 983, 2-bromo-5-{4-[2-(4-cyclobutylpiperazin-1-yl)-2-oxoethyl]piperazin-1-yl}pyrazine] | < 1000 |
| O=C(CN1CCC2(CC1)c1ccccc1C(=O)N2C1CCC1)N1CCN(C2CCC2)CC1 [Compound 984, 2-cyclobutyl-1′-[2-(4-cyclobutylpiperazin-1-yl)-2-oxoethyl]spiro[isoindole-1,4′-piperidin]-3(2H)-one] | < 1000 |
| O=C(CN1CCN(c2ccc(-c3ccc4c(c3)OCO4)nn2)CC1)N1CCN(C2CCC2)CC1 [Compound 986, 3-(1,3-benzodioxol-5-yl)-6-{4-[2-(4-cyclobutylpiperazin-1-yl)-2-oxoethyl]piperazin-1-yl}pyridazine] | < 1000 |
| O=C(CN1CCN(c2ccc(-c3ccc(F)c(Cl)c3)nn2)CC1)N1CCN(C2CCC2)CC1 [Compound 987, 3-(3-chloro-4-fluorophenyl)-6-{4-[2-(4-cyclobutylpiperazin-1-yl)-2-oxoethyl]piperazin-1-yl}pyridazine] | < 1000 |
| O=C(CN1CCN(c2ccc(-c3cccc(Cl)c3)nn2)CC1)N1CCN(C2CCC2)CC1 [Compound 988, 3-(3-chlorophenyl)-6-{4-[2-(4-cyclobutylpiperazin-1-yl)-2-oxoethyl]piperazin-1-yl}pyridazine] | < 1000 |

Continued, values first:

| Ki [nM] | Compound |
| --- | --- |
| < 1000 | CCCCc1ccc(-c2ccc(N3CCN(CC(=O)N4CCN(C5CCC5)CC4)CC3)nn2)cc1 [Compound 989, 3-(4-butylphenyl)-6-{4-[2-(4-cyclobutylpiperazin-1-yl)-2-oxoethyl]piperazin-1-yl}pyridazine] |
| < 1000 | O=C(CN1CCN(c2ccc(-c3ccc(Cl)c(F)c3)nn2)CC1)N1CCN(C2CCC2)CC1 [Compound 990, 3-(4-chloro-3-fluorophenyl)-6-{4-(2-(4-cyclobutylpiperazin-1-yl)-2-oxoethyl]piperazin-1-yl}pyridazine] |
| < 1000 | O=C(CN1CCN(c2ccc(-c3ccc(Cl)cc3)nn2)CC1)N1CCN(C2CCC2)CC1 [Compound 991, 3-(4-chlorophenyl)-6-{4-[2-(4-cyclobutylpiperazin-1-yl)-2-oxoethyl]piperazin-1-yl}pyridazine] |
| < 1000 | CC(C)(C)c1ccc(-c2ccc(N3CCN(CC(=O)N4CCN(C5CCC5)CC4)CC3)nn2)cc1 [Compound 992, 3-(4-tert-butylphenyl)-6-{4-[2-(4-cyclobutylpiperazin-1-yl)-2-oxoethyl]piperazin-1-yl}pyridazine] |
| < 1000 | CN(C)c1cccc(-c2cnc(N3CCN(CC(=O)N4CCN(C5CCC5)CC4)CC3)cn2)c1 [Compound 993, 3-(5-{4-[2-(4-cyclobutylpiperazin-1-yl)-2-oxoethyl]piperazin-1-yl}pyrazin-2-yl)-N,N-dimethylaniline] |
| < 1000 | N#Cc1cccc(-c2cnc(N3CCN(CC(=O)N4CCN(C5CCC5)CC4)CC3)cn2)c1 [Compound 994, 3-(5-{4-[2-(4-cyclobutylpiperazin-1-yl)-2-oxoethyl]piperazin-1-yl}pyrazin-2-yl)benzonitrile] |
| < 1000 | COc1ccc(Cl)cc1-c1ccc(N2CCN(CC(=O)N3CCN(C4CCC4)CC3)CC2)nn1 [Compound 995, 3-(5-chloro-2-methoxyphenyl)-6-{4-[2-(4-cyclobutylpiperazin-1-yl)-2-oxoethyl]piperazin-1-yl}pyridazine] |
| < 1000 | CN(C)c1cccc(-c2ccc(N3CCN(CC(=O)N4CCN(C5CCC5)CC4)CC3)nn2)c1 [Compound 996, 3-(6-{4-[2-(4-cyclobutylpiperazin-1-yl)-2-oxoethyl]piperazin-1-yl}pyridazin-3-yl)-N,N-dimethylaniline] |
| < 1000 | N#Cc1cccc(-c2ccc(N3CCN(CC(=O)N4CCN(C5CCC5)CC4)CC3)nn2)c1 [Compound 997, 3-(6-{4-[2-(4-cyclobutylpiperazin-1-yl)-2-oxoethyl]piperazin-1-yl}pyridazin-3-yl)benzonitrile] |
